The target in one assay is Jack bean urease (JBU) (Canavalia ensiformis, UniProt P07374). Briefly: ESI-MS monitoring of urea depletion. Type of assay: biochemical.
The target in assay [1] is T1, phosphodiesterase-5A1 (PDE5A1) (Homo sapiens, UniProt O76074).
T1 construct: gene PDE5A
Nature of the assay: biochemical.

The target in assay [2] is human angiotensin-converting enzyme (ACE) (Homo sapiens, UniProt P12821). Nature of the assay: spectrophotometric hippuric acid formation, % inhibition at […]. Format: biochemical.
Chain of human angiotensin-converting enzyme (ACE) (P12821 30-1306): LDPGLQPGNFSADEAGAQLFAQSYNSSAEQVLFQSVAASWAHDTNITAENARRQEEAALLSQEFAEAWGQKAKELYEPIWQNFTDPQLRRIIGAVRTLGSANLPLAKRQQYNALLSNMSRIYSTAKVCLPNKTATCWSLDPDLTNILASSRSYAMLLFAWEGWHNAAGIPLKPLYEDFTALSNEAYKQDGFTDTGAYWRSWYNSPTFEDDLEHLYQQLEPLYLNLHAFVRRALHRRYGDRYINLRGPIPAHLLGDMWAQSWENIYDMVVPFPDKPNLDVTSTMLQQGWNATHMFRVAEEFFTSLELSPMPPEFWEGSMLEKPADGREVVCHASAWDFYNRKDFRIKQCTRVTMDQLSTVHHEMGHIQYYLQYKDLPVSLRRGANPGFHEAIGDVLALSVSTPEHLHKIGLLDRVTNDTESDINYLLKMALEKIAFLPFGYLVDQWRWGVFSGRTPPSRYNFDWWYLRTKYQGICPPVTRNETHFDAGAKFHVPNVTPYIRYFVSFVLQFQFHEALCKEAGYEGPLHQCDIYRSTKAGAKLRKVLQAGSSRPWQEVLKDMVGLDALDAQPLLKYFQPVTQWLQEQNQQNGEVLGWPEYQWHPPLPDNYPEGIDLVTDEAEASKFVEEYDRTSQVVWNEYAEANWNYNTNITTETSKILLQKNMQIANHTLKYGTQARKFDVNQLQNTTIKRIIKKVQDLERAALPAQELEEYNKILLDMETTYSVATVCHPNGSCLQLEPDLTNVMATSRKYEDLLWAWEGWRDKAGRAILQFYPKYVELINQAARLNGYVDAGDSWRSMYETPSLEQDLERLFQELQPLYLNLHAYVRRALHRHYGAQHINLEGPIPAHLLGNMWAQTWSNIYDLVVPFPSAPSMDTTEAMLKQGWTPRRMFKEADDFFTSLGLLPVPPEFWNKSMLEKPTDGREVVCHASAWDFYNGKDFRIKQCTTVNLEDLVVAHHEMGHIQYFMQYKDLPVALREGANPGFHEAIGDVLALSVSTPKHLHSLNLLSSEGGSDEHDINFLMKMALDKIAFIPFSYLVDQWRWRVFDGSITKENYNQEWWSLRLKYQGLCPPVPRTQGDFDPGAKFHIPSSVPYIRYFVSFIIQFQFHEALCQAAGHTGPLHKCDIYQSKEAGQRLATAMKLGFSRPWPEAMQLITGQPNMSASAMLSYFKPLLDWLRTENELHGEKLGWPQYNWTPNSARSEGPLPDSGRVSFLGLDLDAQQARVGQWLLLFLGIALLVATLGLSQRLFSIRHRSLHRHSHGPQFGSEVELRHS

Chain of Jack bean urease (JBU) (P07374 whole entry, looked up): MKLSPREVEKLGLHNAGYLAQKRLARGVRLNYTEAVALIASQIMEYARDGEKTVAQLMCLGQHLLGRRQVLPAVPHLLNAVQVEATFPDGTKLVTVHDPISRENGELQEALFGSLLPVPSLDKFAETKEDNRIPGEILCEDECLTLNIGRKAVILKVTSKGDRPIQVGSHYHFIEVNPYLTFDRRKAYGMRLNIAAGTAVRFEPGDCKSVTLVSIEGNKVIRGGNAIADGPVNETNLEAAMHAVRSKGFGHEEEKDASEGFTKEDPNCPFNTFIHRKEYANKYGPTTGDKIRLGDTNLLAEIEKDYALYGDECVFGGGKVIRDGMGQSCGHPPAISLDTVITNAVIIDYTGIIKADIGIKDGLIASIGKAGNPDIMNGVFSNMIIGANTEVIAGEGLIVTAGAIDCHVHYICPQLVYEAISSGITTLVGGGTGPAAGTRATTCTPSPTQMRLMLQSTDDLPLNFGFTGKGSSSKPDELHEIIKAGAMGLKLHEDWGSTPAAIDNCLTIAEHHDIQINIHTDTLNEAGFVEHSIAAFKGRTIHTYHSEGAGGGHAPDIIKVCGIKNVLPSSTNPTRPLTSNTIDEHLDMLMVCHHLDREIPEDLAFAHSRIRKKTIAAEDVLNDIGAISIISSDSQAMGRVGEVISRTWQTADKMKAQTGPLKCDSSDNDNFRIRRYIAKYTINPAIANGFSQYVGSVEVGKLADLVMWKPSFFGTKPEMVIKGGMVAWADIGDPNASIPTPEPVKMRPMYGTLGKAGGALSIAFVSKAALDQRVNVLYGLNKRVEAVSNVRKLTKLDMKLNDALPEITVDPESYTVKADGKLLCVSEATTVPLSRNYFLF

Regarding `CC(=O)NO` [AHA, acetohydroxamic acid, reference compound], the IC50 against Jack bean urease (JBU) worked out at 3.9 µM.

Turning to `O=C1CC[C@@H](C(=O)O)N1` [pGlu, pyroglutamic acid], the IC50 in assay [1] was 5.23 ± 1.33 µM; at Jack bean urease (JBU), 1.8 µM. In assay [2], 20 µg/mL produced 98.2 ± 1.12% inhibition.

In general, IC50 refers to the midpoint of a concentration-inhibition curve. High values mean weaker potency, low ones greater potency. For orientation: inhibition means the change of the read-out against control, counted positive when it falls.

The values are drawn from paper PMC6770154, “A Multi-Biochemical and In Silico Study on Anti-Enzymatic Actions of Pyroglutamic Acid against PDE-5, ACE, and Urease Using Various Analytical Techniques: Unexplored Pharmacological Properties and Cytotoxicity Evaluation” (Biomolecules, 2019).
